One data set in a line: in vitro. The format is in vitro ADME. The settings on record: pH 7.4, 37 °C. Here is the method:
Then, we analyzed the stability of the compounds in plasma. […] The observed increase in plasma stability of the tested amide derivatives compared to bisacylhydrazone 14 supports our design hypothesis for the isosteric replacement of the bisacylhydrazone linking motif. […]
Each compound dissolved in DMSO was added to mouse plasma (pH 7.4, 37 °C) or to human plasma (pH 7.4, 37 °C) to yield a final concentration of 1 µM. In addition, procaine and procainamide (dissolved in DMSO) were added to mouse plasma or to human plasma (pH 7.4, 37 °C) to yield a final concentration of 1 µM. Procaine served as positive control as it is unstable in mouse plasma. Procainamide served as negative control as it is stable in mouse plasma. The samples were incubated for 0 min, 15 min, 30 min, 60 min, 90 min, 120 min and 240 min at 37 °C. At each time point, 10 µl of the respective sample was extracted with 90 µL acetonitrile containing 12.5 ng/mL caffeine as internal standard for 5 min at 2000 rpm on a MixMate vortex […]
mixer (Eppendorf). Acetonitrile and caffeine were dispensed using a Mantis Formulatrix. Then samples were centrifuged for 20 min at 2.270 x g at 4 °C and the supernatants were transferred to 96-well Greiner V-bottom plates. Peak areas of each compound and of the internal standard were analyzed using the MultiQuant 3.0 software (AB Sciex). Peak areas of the respective compound were normalized to the internal standard peak area and to the respective peak areas at time point 0 min: (C/D)/(A/B) with A: peak area of the compound at time point 0 min, B: peak area of the internal standard at time point 0 min, C: peak area of the compound at the respective time point, D: peak area of the internal standard at the respective time point. […]
2 hours at 800 rpm on an Eppendorf MixMate vortex-mixer. Then samples were withdrawn from the respective chambers. To 25 µL of each dialysis sample, 25 µL of plasma and to 25 µL of plasma sample, 25 µL of dialysis buffer was added. Then 150 µL ice-cold extraction solvent (ACN/H2O (90:10) containing 12.5 ng/mL caffeine as internal standard) was added. Samples were incubated for 30 min on ice. Then samples were centrifuged at 4 °C at 2270 x g for 10 min.

Data set [1] can be described thus: In vitro metabolic stability, human liver microsomes. The settings on record: N=3, read-out: CLint HLM. It counts as in vitro ADME. Here is the method: We then determined the in vitro metabolic stability in plasma and liver microsomes as well as plasma protein binding for a selected subset of the synthesized LecA inhibitors, i.e. D1, D2, H1, H2 and L2 and compared them to the parent bisacylhydrazone 14 (Table 2). […] The metabolic stability of the compounds differed in presence of human liver microsomes (HLM). Introduction of a pyridine ring decreased stability (H1 CLint=28.6 μL min^−1/mg protein, H2 CLint=32.5 μL min^−1/mg protein) compared to the benzene analogues (D1 CLint=21.9 μL min^−1/mg protein, D2 CLint=21.0 μL min^−1/mg protein) and to the parent acylhydrazone 14 (CLint=19.6 μL min^−1/mg protein). […]
(§1) mixer (Eppendorf). Acetonitrile and caffeine were dispensed using a Mantis Formulatrix. Then samples were centrifuged for 20 min at 2.270 x g at 4 °C and the supernatants were transferred to 96-well Greiner V-bottom plates. Peak areas of each compound and of the internal standard were analyzed using the MultiQuant 3.0 software (AB Sciex). Peak areas of the respective compound were normalized to the internal standard peak area and to the respective peak areas at time point 0 min: (C/D)/(A/B) with A: peak area of the compound at time point 0 min, B: peak area of the internal standard at time point 0 min, C: peak area of the compound at the respective time point, D: peak area of the internal standard at the respective time point.
(§2) In vitro metabolic stability assay
(§3) Liver microsomes (mouse and human, Thermo Fisher) were thawed slowly on ice. 20 mg/mL of microsomes, 2 µL of a 100 µM solution of every compound and 183 µL of 100 mM phosphate buffer were incubated 5 min at 37 °C in a water bath. Reactions were initiated using 10 µL of 20 mM NADPH (CarlRoth). Samples were incubated in three replicates at 37 °C under gentle agitation at 150 rpm. At 0, 5, 15, 30, and 60 min, reactions were terminated by the addition of 180 µL acetonitrile using a Mantis Formulatrix dispenser. Samples were vortexed for 5 min using an Eppendorf MixMate vortex mixer and centrifuged at 2.270 x g for 20 min at 4 °C. The supernatants were transferred to 96-well Greiner V-bottom plates, sealed and analyzed according to the section HPLC-MS analysis. Peak areas of the respective time point of the compounds were normalized to the peak area at time point 0 min. Then half-life was calculated using linear regression (Microsoft Excel). Clint [µL/min/mg protein] was calculated using the following formula: […]

Data set [2] in a line: In vitro metabolic stability, mouse liver microsomes. The format is in vitro ADME. The note with it: N=3, read-out: CLint MLM. As for the experimental part: as §1, with “Acetonitrile” for “mixer (Eppendorf). Acetonitrile”
as §2, §3

A short description of data set [3]: Kinetic solubility in TBS/Ca2+ buffer (HPLC-MS). It counts as physicochemical. The settings on record: aqueous buffer, kinetic from dmso stock; TBS/Ca2+ buffer pH 7.4, 1 % DMSO, N≥3; read-out: Solubility S (kinetic). As for the experimental part:
Next, we quantified the solubility of at least one representative of each new class and of one parent bisacylhydrazone in aqueous media (Table 1). […]
TBS/Ca2+ buffer (20 mM Tris, 137 mM NaCl, 2.6 mM KCl at pH 7.4 supplemented with 1 mM […]
CaCl2) in presence of 25% DMSO. […]
Kinetic solubility was determined on the analytical HPLC-MS using Compass QuantAnalysis quantification software (Bruker). Samples were prepared from DMSO stock solutions by dilution with TBS/Ca2+ buffer to 100 µM with 1% DMSO present. Samples were incubated on a shaker for 1 h at r.t., centrifuged (21380 g, 20 min), supernatants were diluted with DMSO (1:3), analyzed by HPLC-MS and fitted to the individual calibration curves.
Every experiment was repeated independently at least three times. […]

In a further data set the test system is P. aeruginosa PAO1. Nature of the data set: Invasion assay of P. aeruginosa PAO1 into H1299 cells. The settings on record: PAO1 into H1299 cells, N≥4. The format is cell-based, Pseudomonas aeruginosa. As for the experimental part:
P. aeruginosa is able to invade non‐phagocytic cells via a lipid zipper mechanism.[10] Binding of LecA to the glycosphingolipid Gb3 followed by LecA‐induced receptor clustering plays a crucial role in this process. The LecA ligand 4‐nitrophenyl α‐ D‐galactopyranoside (PNPG) has been previously shown to interfere with these events at a high concentration of 10 mM leading to a reduction of bacterial invasiveness to 30–60 % as compared to untreated bacteria (100 % invasiveness).[10, 31] For invasion assays, H1299 cells were incubated with P. aeruginosa in presence and absence of LecA inhibitors, followed by killing of extracellular bacteria with the antibiotic amikacin. Then, all intracellular bacteria were released by lysis of the human cells and viable bacteria were quantified by plating. To assess the impact of LecA inhibitors on the invasiveness, the influence of the divalent LecA inhibitor L2 on bacterial invasion into host cells was evaluated and compared to PNPG. […] In contrast, the divalent LecA ligand L2 achieved an invasion decrease to 44 % already at 100 μM (Figure 5c). L2 was thus able to reach a similar reduction of invasion at a 100‐fold lower concentration than the one needed for PNPG. […]
lectin-inhibitor solution for 24 h at 37 °C. In order to depict exactly the same position for each wound, marker lines were drawn on the bottom of the 12-well plates for each well. The samples were imaged with an EVOS microscope (PEQLAB by VWR Life Sciences, Avantor […]
Excel. […]
A chromosomally GFP-tagged Gentamicin-resistant Pseudomonas aeruginosa PAO1 strain was cultured (LB medium supplemented with 60 µg/mL Gentamicin, 37 °C, 180 rpm, 16 h) and invasion assays were performed in analogy to Eierhoff et al..[13] 1.5 x 10^4 H1299 cells per well were seeded one day prior to the invasion assay in a 96-well plate with flat bottom. An […]
overnight culture of P. aeruginosa was centrifuged for 5 min at 3000 x g, washed with PBS (- /-) and re-suspended in RPMI 1640 medium. The newly synthesized divalent LecA ligand L2 was compared to 4-nitrophenyl α-D-galactopyranoside (PNPG; Sigma-Aldrich, Chemie GmbH, Darmstadt, Germany). […]
Subsequently, cells were washed three times with DPBS and lysed by incubation with 0.25% (v/v) Triton X-100 (Carl Roth GmbH & Co. KG, Karlsruhe, Germany) for 5 min at 37 °C and 180 rpm. […] Bacterial colonies were counted the next day. […] The invasion rate was calculated as the number of intracellularly localized bacteria divided by the total number of non-treated bacteria, bacteria that were not treated with any ligands and neither amikacin, thus the number of P. aeruginosa that successfully invaded or stayed attached to the host cells. Experiments were repeated independently at least four times (N ≥ 4) and evaluated […]

The test system of another data set is P. aeruginosa. Further details: method as in PMID 25136128, PMID 25044671. The settings on record: 10 mM; cited from earlier work.

Structures are written as SMILES. Converted amounts (≈) assume the structure as drawn. Read-outs that look alike come from different tables or passages of the source.

The values below come from article PMC10107299, “Neutralizing the Impact of the Virulence Factor LecA from Pseudomonas aeruginosa on Human Cells with New Glycomimetic Inhibitors” (Angewandte Chemie (International Ed. in English), 2023).

Turning to `O=C(N/N=C/c1ccc(OCCOc2ccc(/C=N/NC(=O)c3ccc(O[C@@H]4O[C@H](CO)[C@H](O)[C@H](O)[C@H]4O)cc3)cc2)cc1)c1ccc(O[C@@H]2O[C@H](CO)[C@H](O)[C@H](O)[C@H]2O)cc1` [Compound 14, reference compound], the half-life at 1 µM stood at 2.06 h in “in vitro” (human plasma, read-out: Plasma stability t1/2 Human) and 0.815 h in the data set “in vitro” (mouse plasma, read-out: Plasma stability t1/2 Mouse). Besides, the microsomal CLint at 1 µM in data set [1] is 19.6 µL/min/mg; in data set [2], less than 23 µL/min/mg. The kinetic solubility at 1 h in data set [3] came out at 1.6 ± 0.4 µM (≈ 1.38 µg/mL).

For the compound `O=[N+]([O-])c1ccc(O[C@H]2O[C@H](CO)[C@H](O)[C@H](O)[C@H]2O)cc1` [PNPG, 4-nitrophenyl α-D-galactopyranoside, reference compound], the figures for the “Bacterial invasiveness (untreated bacteria 100 %)” value with P. aeruginosa PAO1 (100 μM inhibitor), in the data set with P. aeruginosa PAO1 (10 mM inhibitor) and with P. aeruginosa were 89%, 44% and 30–60%, respectively.
